Reference: ChEMBL document CHEMBL1159192, “PD 165929 the first high affinity non-peptide neuromedin-B (NMB) receptor selective antagonist” (Bioorg Med Chem Lett, 1996)

Experiments:
[1] = molecular target: Gastrin-releasing peptide receptor (Homo sapiens, UniProt P30550); assay: Binding affinity against [125 I][4Tyr]-bombesin labeled cloned human GRP(gastrin releasing peptide) receptors stably expressed in CHO cells; format: cell-based
Neuromedin-B receptor [2] = molecular target: T1, Neuromedin-B receptor (Homo sapiens, UniProt P28336); assay: Binding affinity against [125 I][4Tyr]-bombesin labeled cloned human NMB receptor stably expressed in CHO cells; format: cell-based
Target sequence in this assay (P28336 whole entry): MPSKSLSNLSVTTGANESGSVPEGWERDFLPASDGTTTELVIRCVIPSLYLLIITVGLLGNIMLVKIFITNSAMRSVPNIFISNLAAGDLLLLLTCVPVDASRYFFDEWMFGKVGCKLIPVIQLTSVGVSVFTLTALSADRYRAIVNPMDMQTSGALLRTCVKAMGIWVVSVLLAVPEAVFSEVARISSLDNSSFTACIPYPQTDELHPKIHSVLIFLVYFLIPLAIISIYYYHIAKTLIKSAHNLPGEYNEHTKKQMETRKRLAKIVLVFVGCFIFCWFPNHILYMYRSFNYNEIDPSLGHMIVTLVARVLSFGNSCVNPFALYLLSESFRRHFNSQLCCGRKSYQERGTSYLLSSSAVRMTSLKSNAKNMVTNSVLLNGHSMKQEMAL

Neuromedin-B receptor [3] = molecular target: T1, Neuromedin-B receptor; assay: Binding affinity against human NMB receptor was determined
Target sequence in this assay (P28336 whole entry): as above

Neuromedin-B receptor [4] = molecular target: T1, Neuromedin-B receptor; assay: Inhibition of the NMB evoked increases in chloride currents in xenopus oocytes expressing human NMB receptor; format: functional, cell-based; settings: Oocyte
Target sequence in this assay (P28336 whole entry, looked up): as the sequence (P28336 whole entry) above

Neuromedin-B receptor [5] = molecular target: T1, Neuromedin-B receptor; assay: Inhibition of the NMB induced acidification response at human NMB receptor expressed in CHO cell; format: functional, cell-based
Target sequence in this assay (P28336 whole entry, looked up): as the sequence (P28336 whole entry) above

Neuromedin-B receptor [6] = molecular target: T2, Neuromedin-B receptor (Rattus norvegicus, UniProt P24053); assay: Binding affinity against NMB receptor in rat olfactory bulb was determined using [125I]-[Tyr4] bombesin.
T2 sequence (P24053 whole entry): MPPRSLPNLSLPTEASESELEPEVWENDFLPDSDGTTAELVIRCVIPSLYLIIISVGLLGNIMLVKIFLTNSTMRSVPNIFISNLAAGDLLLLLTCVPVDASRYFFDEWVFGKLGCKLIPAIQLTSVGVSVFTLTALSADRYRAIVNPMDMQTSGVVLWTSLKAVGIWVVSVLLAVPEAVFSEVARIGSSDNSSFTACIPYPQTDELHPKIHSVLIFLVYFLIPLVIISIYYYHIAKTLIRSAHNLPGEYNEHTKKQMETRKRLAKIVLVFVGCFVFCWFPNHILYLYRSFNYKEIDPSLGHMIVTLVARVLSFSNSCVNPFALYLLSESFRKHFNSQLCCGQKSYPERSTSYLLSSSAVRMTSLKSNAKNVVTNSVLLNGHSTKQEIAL

Gastrin-releasing peptide receptor, sequence (P30550 whole entry): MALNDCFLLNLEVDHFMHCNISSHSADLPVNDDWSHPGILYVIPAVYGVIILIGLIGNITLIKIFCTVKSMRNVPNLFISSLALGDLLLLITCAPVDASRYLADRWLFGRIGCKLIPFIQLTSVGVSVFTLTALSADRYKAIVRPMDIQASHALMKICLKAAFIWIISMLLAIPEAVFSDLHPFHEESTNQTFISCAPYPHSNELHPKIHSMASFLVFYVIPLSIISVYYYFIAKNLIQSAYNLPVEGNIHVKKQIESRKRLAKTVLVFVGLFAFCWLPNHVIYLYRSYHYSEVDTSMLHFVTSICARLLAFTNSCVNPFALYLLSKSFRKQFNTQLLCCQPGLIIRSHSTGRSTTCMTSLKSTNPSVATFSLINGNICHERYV

SMILES: CC(C)c1cccc(C(C)C)c1NC(=O)N(C)C(Cc1c[nH]c2ccccc12)C(=O)NCC1CCCCC1 (stereo not drawn)
- Ki [1]: 1500 nM

SMILES: CC(C)c1cccc(C(C)C)c1NC(=O)NC(C)(Cc1c[nH]c2ccccc12)C(=O)NCC1CCCCC1 (stereo not drawn)
- Ki [1]: > 10000 nM
- Ki (Neuromedin-B receptor [2]): 125 nM

SMILES: CC(C)c1cccc(C(C)C)c1NC(=O)N[C@@](C)(Cc1c[nH]c2ccccc12)C(=O)NC1CCCCC1c1ccccc1 (stereo partly drawn)
- Ki [1]: > 10000 nM
- Ki (Neuromedin-B receptor [2]): 76 nM

SMILES: CC(C)c1cccc(C(C)C)c1NC(=O)NC(Cc1c[nH]c2ccccc12)C(=O)NCC1CCCCC1 (stereo not drawn)
- Ki [1]: > 10000 nM
- Ki (Neuromedin-B receptor [2]): 120 nM

SMILES: CC(C)c1cccc(C(C)C)c1NC(=O)NC(Cc1c[nH]c2ccccc12)C(=O)N(C)CC1CCCCC1 (stereo not drawn)
- Ki [1]: > 10000 nM

SMILES: CC(C)c1cccc(C(C)C)c1NC(=O)NC(C)(Cc1c[nH]c2ccccc12)C(=O)NC1COC(C)(C)OC1 (stereo not drawn)
- Ki [1]: > 10000 nM
- Ki (Neuromedin-B receptor [2]): 630 nM

SMILES: CC(C)c1cccc(C(C)C)c1N(C)C(=O)NC(Cc1c[nH]c2ccccc12)C(=O)NCC1CCCCC1 (stereo not drawn)
- Ki [1]: > 10000 nM
- Ki (Neuromedin-B receptor [2]): 260 nM

SMILES: CC(C)c1cccc(C(C)C)c1NC(=O)NC(C)(Cc1c[nH]c2ccccc12)C(=O)NC1CCCc2ccccc21 (stereo not drawn)
- Ki [1]: > 10000 nM
- Ki (Neuromedin-B receptor [2]): 72 nM

SMILES: CC(C)c1cccc(C(C)C)c1NC(=O)N[C@@](C)(Cc1c[nH]c2ccccc12)C(=O)NCC1(c2ccccn2)CCCCC1
- Ki [1]: > 10000 nM
- Ki (Neuromedin-B receptor [3]): 6.3 nM
- Kb (Neuromedin-B receptor [4]): 7.5 nM
- Kb (Neuromedin-B receptor [5]): 7.6 nM
- IC50 (Neuromedin-B receptor [6]): 150 nM
- Ki (Neuromedin-B receptor [2]): 6.3 nM

SMILES: CC(C)c1cccc(C(C)C)c1NC(=O)NC(C)(Cc1c[nH]c2ccccc12)C(=O)NCCc1ccccc1 (stereo not drawn)
- Ki [1]: > 10000 nM
- Ki (Neuromedin-B receptor [2]): 450 nM

SMILES: CC(C)c1cccc(C(C)C)c1NC(=O)NC(C)(Cc1c[nH]c2ccccc12)C(=O)N[C@H]1COC(C)(C)OC1c1ccccc1 (stereo partly drawn)
- Ki [1]: > 10000 nM
- Ki (Neuromedin-B receptor [2]): 95 nM

SMILES: CC(C)c1cccc(C(C)C)c1NC(=O)NC(C)(Cc1c[nH]c2ccccc12)C(=O)NCC1(c2ccccc2)CCCCC1 (stereo not drawn)
- Ki [1]: > 10000 nM
- Ki (Neuromedin-B receptor [2]): 7.8 nM

SMILES: CC(C)c1cccc(C(C)C)c1NC(=O)NC(C)(Cc1c[nH]c2ccccc12)C(=O)NC1CCc2ccccc2C1 (stereo not drawn)
- Ki [1]: > 10000 nM
- Ki (Neuromedin-B receptor [2]): 310 nM

SMILES: CC(C)c1cccc(C(C)C)c1NC(=O)NC(C)(Cc1c[nH]c2ccccc12)C(=O)NC1CCCCC1 (stereo not drawn)
- Ki [1]: > 10000 nM
- Ki (Neuromedin-B receptor [2]): 310 nM

SMILES: CC(C)c1cccc(C(C)C)c1NC(=O)NC(C)(Cc1c[nH]c2ccccc12)C(=O)N[C@@H]1COC(C)(C)OC1c1ccccc1 (stereo partly drawn)
- Ki [1]: > 10000 nM
- Ki (Neuromedin-B receptor [2]): 420 nM

SMILES: CC(C)c1cccc(C(C)C)c1NC(=O)NC(Cc1c[nH]c2ccccc12)C(=O)NC(C)C1CCCCC1 (stereo not drawn)
- Ki [1]: > 10000 nM
- Ki (Neuromedin-B receptor [2]): 440 nM

SMILES: CNC(=O)C(C)(Cc1c[nH]c2ccccc12)NC(=O)Nc1c(C(C)C)cccc1C(C)C (stereo not drawn)
- Ki [1]: > 10000 nM
- Ki (Neuromedin-B receptor [2]): 3700 nM

SMILES: CC(C)c1cccc(C(C)C)c1NC(=O)N[C@](C)(Cc1c[nH]c2ccccc12)C(=O)NC1CCCc2ccccc21 (stereo partly drawn)
- Ki [1]: > 10000 nM
- Ki (Neuromedin-B receptor [2]): 14 nM
